# According to the NIST ThermoML archive (doi:10.1016/j.jct.2012.10.017):
# Numbers after ± are expanded uncertainties.
# Conditions: Liquid, Ebulliometric method (Recirculating still)
SMILES,vapor or sublimation pressure (449.39 K) [kPa],vapor or sublimation pressure (428.65 K) [kPa]
Cc1ccc(C(C)C)cc1 [1-(1-methylethyl)-4-methylbenzene],100.7 ± 0.6,–
CC1=CCC2CC1C2(C)C (configuration not stated) [2-pinene],–,100.7 ± 1.1
